# Source: patent US20030191323A1, “Hypoglycemic agent” (Ajinomoto Co., Inc., priority 2000, published 2003)
row,melting point,Structure (SMILES)
1,164 °C,"CCCCCCCCCC(=O)NS(=O)(=O)c1ccccc1NC(=O)c1cccc(OCc2ccc(C(F)(F)F)cc2)c1 [compound 42, N-[2-[3-(4-Trifluoromethylbenzyloxy)benzamido]benzenesulfonyl]decanamide]"
2,164 to 167 °C,"CC(=O)NS(=O)(=O)c1ccccc1NC(=O)c1cccc(OCC2CCCCC2)c1 [compound 33, N-[2-(3-Cyclohexylmethoxybenzamido)benzenesulfonyl]acetamide]"
3,220 to 221 °C,"O=C(Nc1ccccc1S(=O)(=O)NC(=O)c1ccc(C(F)(F)F)cc1)c1cccc(OCc2ccccc2)c1 [compound 5, N-[2-(3-Benzyloxybenzamido)benzenesulfonyl]-4-trifluoromethylbenzamide]"
4,195 to 196 °C,"CC(=O)NS(=O)(=O)c1ccccc1NC(=O)c1cccc(OCc2ccccc2)c1 [compound 4, N-[2-(3-Benzyloxybenzamido)benzenesulfonyl]acetamide]"
5,172 to 173 °C,"O=C(Nc1ccccc1S(=O)(=O)NC(=O)c1cccc(OCc2ccccc2)c1)c1cccc(OCc2ccccc2)c1 [compound 2, N-[2-(3-Benzyloxybenzamido)benzenesulfonyl]-3-benzyloxybenzamide]"
6,201 to 202 °C,"O=C(Nc1ccccc1S(=O)(=O)NC(=O)c1ccccc1)c1cccc(OCc2ccccc2)c1 [compound 3, N-[2-(3-Benzyloxybenzamido)benzenesulfonyl]-benzamide]"
7,187 to 188 °C,"CC(C)=CC(=O)NS(=O)(=O)c1ccccc1NC(=O)c1ccc(C#Cc2ccccc2)cc1 [compound 52, 3-Methyl-N-[2-(4-phenylethynylbenzamido)benzenesulfonyl]-2-butenamide]"
8,110 to 111 °C,"CC(C)(C)c1ccc(COc2cccc(C(=O)Nc3ccccc3S(=O)(=O)NC(=O)/C=C/c3ccccc3)c2)cc1 [compound 15, N-[2-[3-(4-t-butylbenzyloxy)benzamido]benzenesulfonyl]cinnamamide]"
9,148 to 149 °C,"CCCCCCCCCC(=O)NS(=O)(=O)c1ccccc1NC(=O)c1cccc(OCc2ccc(OC)cc2)c1 [compound 31, N-[2-[3-(4-Methoxybenzyloxy)benzamido]benzenesulfonyl]decanamide]"
10,214 to 215 °C,"CC(=O)NS(=O)(=O)c1ccccc1NC(=O)c1ccc(C#Cc2ccccc2)cc1 [compound 48, N-[2-(4-Phenylethynylbenzamido)benzenesulfonyl]acetamide]"
11,189 to 190 °C,"COc1ccc(C(=O)NS(=O)(=O)c2ccccc2NC(=O)c2cccc(OCc3ccccc3)c2)cc1 [compound 7, N-[2-(3-benzyloxybenzamido)benzenesulfonyl]-4-methoxybenzamide]"
12,133 to 134 °C,"CCCCCC(=O)NS(=O)(=O)c1ccccc1NC(=O)c1cccc(OCc2ccccc2)c1 [compound 9, N-[2-(3-Benzyloxybenzamido)benzenesulfonyl]-n-hexanamide]"
13,85 to 86 °C,"CCCCCCCCCC(=O)NS(=O)(=O)c1ccccc1NC(=O)c1cccc(OCc2ccccc2)c1 [compound 10, N-[2-(3-Benzyloxybenzamido)benzenesulfonyl]-decanamide]"
14,194 to 195 °C,"CCCCCCCOc1cccc(C(=O)Nc2ccccc2S(=O)(=O)NC(C)=O)c1 [compound 44, N-[2-(3-Heptyloxybenzamido)benzenesulfonyl]acetamide]"
15,114 to 117 °C,"COc1ccc(COc2cccc(C(=O)Nc3ccccc3S(=O)(=O)NC(C)=O)c2)cc1 [compound 29, N-[2-[3-(4-Methoxybenzyloxy)benzamido]benzenesulfonyl]acetamide]"
16,177 to 178 °C,CCCCNC(=O)NS(=O)(=O)c1ccccc1NC(=O)c1cccc(OCc2ccccc2)c1

row,melting point,Structure (SMILES)
1,132 to 133 °C,"CCCCCCCCCC(=O)NS(=O)(=O)c1ccccc1NC(=O)c1cccc(OCc2ccc(C(C)(C)C)cc2)c1 [compound 38, N-[2-[3-(4-t-Butylbenzyloxy)benzamido]benzenesulfonyl]decanamide]"
2,233 to 234 °C,"O=C(Nc1ccccc1S(=O)(=O)NC(=O)c1ccc([N+](=O)[O-])cc1)c1cccc(OCc2ccccc2)c1 [compound 6, N-[2-(3-benzyloxybenzamido)benzenesulfonyl]-4-nitrobenzamide]"
3,163 to 164 °C,"CCCCCC(=O)NS(=O)(=O)c1ccccc1NC(=O)c1cccc(OCc2ccc(C(C)(C)C)cc2)c1 [compound 37, N-[2-[3-(4-t-Butylbenzyloxy)benzamido]benzenesulfonyl]hexanamide]"
4,159 to 161 °C,"CCCCCCCCCC(=O)NS(=O)(=O)c1ccccc1NC(=O)c1cccc(OCc2ccc(Cl)cc2)c1 [compound 23, N-[2-[3-(4-Chlorobenzyloxy)benzamido]benzenesulfonyl]decanamide]"
5,124 to 125 °C,CCCCCCCCNC(=O)NS(=O)(=O)c1ccccc1NC(=O)c1cccc(OCc2ccccc2)c1
6,124 to 127 °C,"CCCCCCCCCC(=O)NS(=O)(=O)c1ccccc1NC(=O)c1cccc(OCC2CCCCC2)c1 [compound 35, N-[2-(3-Cyclohexylmethoxybenzamido)benzenesulfonyl]decanamide]"
7,200 to 201 °C,"CCCCCCCOc1cccc(C(=O)Nc2ccccc2S(=O)(=O)NC(=O)CCCCC)c1 [compound 45, N-[2-(3-Heptyloxybenzamido)benzenesulfonyl]hexanamide]"
8,155 to 156 °C,"CCCCCCCCCC(=O)NS(=O)(=O)c1ccccc1NC(=O)c1ccc(C#Cc2ccccc2)cc1 [compound 50, N-[2-(4-Phenylethynylbenzamido)benzenesulfonyl]decanamide]"
9,189 to 192 °C,"CC(=O)NS(=O)(=O)c1ccccc1NC(=O)c1cccc(OCc2ccc([N+](=O)[O-])cc2)c1 [compound 25, N-[2-[3-(4-Nitrobenzyloxy)benzamido]benzenesulfonyl]acetamide]"
10,190 to 191 °C,"CC(=O)NS(=O)(=O)c1ccccc1NC(=O)c1cccc(OCc2ccc(C(C)(C)C)cc2)c1 [compound 36, N-[2-[3-(4-t-Butylbenzyloxy)benzamido]benzenesulfonyl]acetamide]"
11,145 to 148 °C,"CCCCCCCCCC(=O)NS(=O)(=O)c1ccccc1NC(=O)c1cccc(OCc2ccc([N+](=O)[O-])cc2)c1 [compound 27, N-[2-[3-(4-nitrobenzyloxy)benzamido]benzenesulfonyl]decanamide]"
12,208 to 209 °C,"C/C=C/C=C/C(=O)NS(=O)(=O)c1ccccc1NC(=O)c1ccc(C#Cc2ccccc2)cc1 [compound 53, Trans-N-[2-(4-phenylethynylbenzamido)benzenesulfonyl]-2,4-hexadienamide]"
13,193 to 194 °C,"CC(C)(C)C(=O)NS(=O)(=O)c1ccccc1NC(=O)c1cccc(OCc2ccc(C(C)(C)C)cc2)c1 [compound 14, N-[2-[3-(4-t-butylbenzyloxy)benzamido]benzenesulfonyl]pivalamide]"
14,129 to 130 °C,"CCCCCCCCCC(=O)NS(=O)(=O)c1ccccc1NC(=O)c1ccc([N+](=O)[O-])c(OCc2ccccc2)c1 [compound 19, N-[2-(3-benzyloxy-4-nitrobenzamido)benzenesulfonyl]decanamide]"
15,163 to 164 °C,O=C(NS(=O)(=O)c1ccccc1NC(=O)c1cccc(OCc2ccccc2)c1)Oc1ccccc1
